Assay results reported in ChEMBL document CHEMBL5291721, “A preclinical secondary pharmacology resource illuminates target-adverse drug reaction associations of marketed drugs” (Nat Commun, 2023).

Legend:
Adenosine receptor A1 = target: T1, Adenosine receptor A1 (Homo sapiens, UniProt P30542)
T1 sequence (P30542 whole entry): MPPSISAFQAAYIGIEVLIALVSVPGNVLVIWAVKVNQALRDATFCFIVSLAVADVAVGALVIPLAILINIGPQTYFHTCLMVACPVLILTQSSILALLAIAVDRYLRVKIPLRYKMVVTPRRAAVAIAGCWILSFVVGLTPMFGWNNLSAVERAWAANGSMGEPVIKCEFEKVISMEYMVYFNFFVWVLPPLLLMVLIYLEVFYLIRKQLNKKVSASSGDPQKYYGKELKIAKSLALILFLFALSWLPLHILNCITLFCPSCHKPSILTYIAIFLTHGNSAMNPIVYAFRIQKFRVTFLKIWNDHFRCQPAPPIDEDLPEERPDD

[1] = target: T2, Gastrin/cholecystokinin type B receptor (Homo sapiens, UniProt P32239)
T2 sequence (P32239 whole entry): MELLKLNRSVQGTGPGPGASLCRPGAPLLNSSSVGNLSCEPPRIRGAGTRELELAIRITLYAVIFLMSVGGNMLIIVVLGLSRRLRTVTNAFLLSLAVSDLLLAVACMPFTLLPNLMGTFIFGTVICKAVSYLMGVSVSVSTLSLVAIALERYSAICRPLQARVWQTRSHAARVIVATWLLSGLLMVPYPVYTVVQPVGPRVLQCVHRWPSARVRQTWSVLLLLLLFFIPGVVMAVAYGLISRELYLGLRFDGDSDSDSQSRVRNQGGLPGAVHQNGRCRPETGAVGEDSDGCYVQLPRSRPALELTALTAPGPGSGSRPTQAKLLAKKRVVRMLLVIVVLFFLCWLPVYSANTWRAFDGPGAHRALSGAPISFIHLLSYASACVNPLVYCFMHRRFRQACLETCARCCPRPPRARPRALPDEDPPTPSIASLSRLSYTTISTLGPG

[2] = target: Voltage-dependent L-type calcium channel subunit alpha-1C (Rattus norvegicus, UniProt P22002); type: functional
Sequence of Voltage-dependent L-type calcium channel subunit alpha-1C (P22002 whole entry): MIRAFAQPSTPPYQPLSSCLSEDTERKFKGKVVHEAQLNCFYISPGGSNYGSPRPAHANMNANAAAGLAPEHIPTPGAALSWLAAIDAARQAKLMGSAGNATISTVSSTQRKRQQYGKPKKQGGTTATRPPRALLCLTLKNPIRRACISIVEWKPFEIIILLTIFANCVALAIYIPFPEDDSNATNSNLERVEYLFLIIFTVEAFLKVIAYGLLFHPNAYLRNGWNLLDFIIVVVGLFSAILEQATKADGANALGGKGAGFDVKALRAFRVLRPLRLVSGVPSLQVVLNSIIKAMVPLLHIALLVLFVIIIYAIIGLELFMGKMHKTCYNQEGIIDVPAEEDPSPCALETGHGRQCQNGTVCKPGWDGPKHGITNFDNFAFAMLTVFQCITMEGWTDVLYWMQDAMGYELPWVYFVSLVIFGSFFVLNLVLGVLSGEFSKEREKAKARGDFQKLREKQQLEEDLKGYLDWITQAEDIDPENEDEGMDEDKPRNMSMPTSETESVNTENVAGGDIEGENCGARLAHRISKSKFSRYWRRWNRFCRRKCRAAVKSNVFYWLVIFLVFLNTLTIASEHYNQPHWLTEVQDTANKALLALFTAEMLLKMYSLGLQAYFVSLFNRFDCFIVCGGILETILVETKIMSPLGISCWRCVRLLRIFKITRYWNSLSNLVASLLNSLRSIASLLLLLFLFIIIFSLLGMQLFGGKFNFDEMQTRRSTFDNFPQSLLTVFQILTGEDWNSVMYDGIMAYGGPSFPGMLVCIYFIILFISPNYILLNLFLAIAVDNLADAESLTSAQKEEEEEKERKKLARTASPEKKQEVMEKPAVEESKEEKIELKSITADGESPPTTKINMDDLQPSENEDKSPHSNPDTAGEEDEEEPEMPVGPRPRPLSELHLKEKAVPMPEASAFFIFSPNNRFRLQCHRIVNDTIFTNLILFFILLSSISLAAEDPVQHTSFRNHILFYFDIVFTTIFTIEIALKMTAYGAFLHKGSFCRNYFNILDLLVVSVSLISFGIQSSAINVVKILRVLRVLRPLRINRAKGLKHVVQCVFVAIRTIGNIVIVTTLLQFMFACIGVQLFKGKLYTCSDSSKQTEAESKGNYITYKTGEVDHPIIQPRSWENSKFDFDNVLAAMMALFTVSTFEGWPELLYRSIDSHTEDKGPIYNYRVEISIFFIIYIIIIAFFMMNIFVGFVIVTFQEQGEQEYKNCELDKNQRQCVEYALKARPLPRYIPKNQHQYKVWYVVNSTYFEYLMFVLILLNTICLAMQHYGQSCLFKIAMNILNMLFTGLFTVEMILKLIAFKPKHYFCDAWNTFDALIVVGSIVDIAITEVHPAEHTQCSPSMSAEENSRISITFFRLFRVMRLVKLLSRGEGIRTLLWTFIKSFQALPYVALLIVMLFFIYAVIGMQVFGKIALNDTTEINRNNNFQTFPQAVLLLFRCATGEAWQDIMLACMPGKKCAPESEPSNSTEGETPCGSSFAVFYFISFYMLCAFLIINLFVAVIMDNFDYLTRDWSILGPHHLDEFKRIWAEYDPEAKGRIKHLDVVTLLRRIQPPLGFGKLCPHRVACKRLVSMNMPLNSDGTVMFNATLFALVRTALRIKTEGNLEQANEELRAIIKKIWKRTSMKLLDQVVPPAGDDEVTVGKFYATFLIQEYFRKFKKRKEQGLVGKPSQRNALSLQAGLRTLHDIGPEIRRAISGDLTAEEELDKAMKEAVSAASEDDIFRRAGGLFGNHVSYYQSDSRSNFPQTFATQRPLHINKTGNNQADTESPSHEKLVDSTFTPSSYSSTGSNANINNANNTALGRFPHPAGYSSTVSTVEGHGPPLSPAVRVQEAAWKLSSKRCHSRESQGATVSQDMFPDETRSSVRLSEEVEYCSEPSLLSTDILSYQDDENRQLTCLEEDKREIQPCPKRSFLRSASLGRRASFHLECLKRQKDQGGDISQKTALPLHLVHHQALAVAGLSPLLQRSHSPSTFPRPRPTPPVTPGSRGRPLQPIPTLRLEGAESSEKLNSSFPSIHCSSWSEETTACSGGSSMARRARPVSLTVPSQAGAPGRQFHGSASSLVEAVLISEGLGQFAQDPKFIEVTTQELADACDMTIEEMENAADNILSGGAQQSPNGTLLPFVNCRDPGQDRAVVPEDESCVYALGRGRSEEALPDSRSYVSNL

Progesterone receptor = target: T3, Progesterone receptor (Homo sapiens, UniProt P06401); type: functional
T3 sequence (P06401 whole entry): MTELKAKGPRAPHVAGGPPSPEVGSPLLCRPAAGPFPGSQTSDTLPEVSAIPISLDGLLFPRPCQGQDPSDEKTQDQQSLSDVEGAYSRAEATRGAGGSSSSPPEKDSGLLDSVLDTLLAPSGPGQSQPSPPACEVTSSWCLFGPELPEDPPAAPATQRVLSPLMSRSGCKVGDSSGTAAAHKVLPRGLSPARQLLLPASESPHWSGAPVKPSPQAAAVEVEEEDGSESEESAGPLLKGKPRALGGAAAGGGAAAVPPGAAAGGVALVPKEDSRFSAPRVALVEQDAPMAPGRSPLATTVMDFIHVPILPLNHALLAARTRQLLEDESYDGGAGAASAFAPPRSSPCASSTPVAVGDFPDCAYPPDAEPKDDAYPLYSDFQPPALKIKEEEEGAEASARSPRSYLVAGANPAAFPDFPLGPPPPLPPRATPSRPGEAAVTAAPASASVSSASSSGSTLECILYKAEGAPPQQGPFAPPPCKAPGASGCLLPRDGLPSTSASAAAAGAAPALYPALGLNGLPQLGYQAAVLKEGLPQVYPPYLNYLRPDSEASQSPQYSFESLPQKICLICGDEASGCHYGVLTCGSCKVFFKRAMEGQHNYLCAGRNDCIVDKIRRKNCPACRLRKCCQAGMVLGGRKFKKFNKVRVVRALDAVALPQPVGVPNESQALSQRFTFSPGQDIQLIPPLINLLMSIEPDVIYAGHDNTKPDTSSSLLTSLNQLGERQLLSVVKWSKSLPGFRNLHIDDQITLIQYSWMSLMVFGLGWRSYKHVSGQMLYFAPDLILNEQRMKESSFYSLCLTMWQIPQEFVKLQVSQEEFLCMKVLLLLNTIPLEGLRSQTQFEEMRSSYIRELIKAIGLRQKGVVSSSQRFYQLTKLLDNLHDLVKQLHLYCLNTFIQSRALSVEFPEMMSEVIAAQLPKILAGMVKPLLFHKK

[3] = target: T4, Alpha-1A adrenergic receptor (Homo sapiens, UniProt P35348); type: functional, cell-based
T4 sequence (P35348 whole entry): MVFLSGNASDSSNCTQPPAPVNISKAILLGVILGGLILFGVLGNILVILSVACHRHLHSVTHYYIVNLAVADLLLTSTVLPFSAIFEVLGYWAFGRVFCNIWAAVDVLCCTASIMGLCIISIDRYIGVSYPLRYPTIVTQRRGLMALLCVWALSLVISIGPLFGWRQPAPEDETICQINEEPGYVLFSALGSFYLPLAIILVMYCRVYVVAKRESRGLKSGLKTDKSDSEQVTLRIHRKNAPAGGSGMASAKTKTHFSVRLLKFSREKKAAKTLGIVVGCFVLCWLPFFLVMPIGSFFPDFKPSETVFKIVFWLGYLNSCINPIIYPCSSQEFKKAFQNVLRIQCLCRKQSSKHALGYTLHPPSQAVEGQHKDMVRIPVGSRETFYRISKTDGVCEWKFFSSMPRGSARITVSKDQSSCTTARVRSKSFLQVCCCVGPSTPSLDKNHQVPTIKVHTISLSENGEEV

[4] = target: Glutamate receptor ionotropic, NMDA 1 (Rattus norvegicus, UniProt P35439)
Also: assay procedure not described here.

Structure (SMILES) | AC50 (Adenosine receptor A1) [µM] | AC50 [1] [µM] | AC50 [2] [µM] | AC50 (Progesterone receptor) [µM] | AC50 [3] [µM] | AC50 [4] [µM]
Clc1ccc(C(Cn2ccnc2)OCc2ccc(Sc3ccccc3)cc2)c(Cl)c1 (configuration not stated) [FENTICONAZOLE] | > 30 | > 30 | 12 | > 30 | > 30 | > 30
Nc1ccn([C@@H]2O[C@H](CO)[C@@H](O)C2(F)F)c(=O)n1 [GEMCITABINE] | > 30 | > 30 | > 10 | > 30 | > 30 | > 10
C#C[C@]1(O)CC[C@H]2[C@@H]3CCC4=CC(=O)CCC4=C3C=C[C@@]21CC [GESTRINONE] | > 30 | > 30 | > 30 | 0.1 | > 30 | > 30
CCCCCCOC(=O)CCC(=O)CN [HEXAMINOLEVULINATE] | > 30 | > 30 | > 30 | > 30 | > 30 | > 30
Nc1nc2c(c(=O)[nH]1)N(C=O)C(CNc1ccc(C(=O)N[C@@H](CCC(=O)O)C(=O)O)cc1)CN2 (some centres not stated) [LEUCOVORIN] | > 30 | > 30 | > 30 | > 30 | > 30 | > 30
CCN(CC)CC(=O)Oc1ccc(NC(C)=O)cc1 [PROPACETAMOL] | > 30 | > 30 | > 30 | > 30 | > 30 | > 30
Cc1cc2nc3c(=O)[nH]c(=O)nc-3n(C[C@H](O)[C@H](O)[C@H](O)COP(=O)(O)O)c2cc1C [RIBOFLAVIN 5'-PHOSPHATE] | > 30 | > 30 | 15 | > 30 | 5.1 | > 30
CC(NCCc1ccc(O)cc1)C(O)c1ccc(O)cc1 (configuration not stated) [RITODRINE] | > 30 | > 30 | > 10 | > 30 | 2 | > 30

Further lines, results first:

AC50 (Adenosine receptor A1) [µM] | AC50 [1] [µM] | AC50 [2] [µM] | AC50 (Progesterone receptor) [µM] | AC50 [3] [µM] | AC50 [4] [µM] | Structure (SMILES)
> 30 | > 30 | > 30 | > 30 | > 30 | > 30 | CCCN(CC)C(CC)C(=O)Nc1c(C)cccc1C (configuration not stated) [ETIDOCAINE]
> 30 | > 30 | > 30 | > 30 | > 30 | > 30 | Nc1nc(F)nc2c1ncn2[C@@H]1O[C@H](COP(=O)(O)O)[C@@H](O)[C@@H]1O [FLUDARABINE PHOSPHATE]
> 30 | > 30 | > 30 | > 30 | 28 | > 30 | CC(C)OC(=O)C(C(=O)OC(C)C)=C1SC=CS1 [MALOTILATE]
> 30 | > 30 | > 30 | > 30 | > 30 | > 30 | CN(c1nccc(=O)[nH]1)C1CCN(c2nc3ccccc3n2Cc2ccc(F)cc2)CC1 [MIZOLASTINE]
> 30 | > 30 | > 30 | > 30 | 0.14 | > 30 | CC(=O)c1ccc2c(c1)N(CCCN1CCC(CCO)CC1)c1ccccc1S2 [PIPERACETAZINE]
> 30 | > 30 | > 30 | > 30 | > 30 | > 30 | CCCOC(C(=O)OC1CCN(C)CC1)(c1ccccc1)c1ccccc1 [PROPIVERINE]
> 30 | > 30 | > 30 | > 30 | > 30 | > 30 | [H]/N=C(/N)N[C@H]1[C@H](O)[C@@H](O)[C@H](O[C@@H]2O[C@@H](C)[C@](O)(C=O)[C@H]2O[C@@H]2O[C@@H](CO)[C@H](O)[C@@H](O)[C@@H]2NC)[C@@H](N/C(N)=N\[H])[C@@H]1O [STREPTOMYCIN]
> 30 | > 30 | > 30 | > 30 | > 30 | > 30 | COc1c(O[C@@H]2O[C@H](CO)[C@@H](O)[C@H](O)[C@H]2O)cc2c(c1OC)-c1ccc(SC)c(=O)cc1[C@@H](NC(C)=O)CC2 [THIOCOLCHICOSIDE]
> 30 | > 30 | > 30 | > 30 | > 30 | > 30 | CC(C)(C)NC[C@H](O)COc1nsnc1N1CCOCC1 [TIMOLOL]
